Drawing on ChEMBL document CHEMBL1142752, “Synthesis and antiviral activities of novel N-alkoxy-arylsulfonamide-based HIV protease inhibitors” (Bioorg Med Chem Lett, 2005), this text covers Ki for 22 compounds.

The target of the assay is Human immunodeficiency virus type 1 protease (Human immunodeficiency virus 1, UniProt Q72874). Kind of assay: Inhibition constant against HIV-1 protease.
With `O=C(N[C@@H](Cc1ccccc1)[C@H](O)CN(OC1CCCC1)S(=O)(=O)c1ccc2c(c1)OCO2)O[C@H]1CO[C@H]2OCC[C@H]21`, the Ki was below 5 pM.
With `COc1ccc(S(=O)(=O)N(C[C@@H](O)[C@H](Cc2ccccc2)NC(=O)OC2CCOC2)OC2CCCC2)cc1` (some centres not stated) the figure was 190 pM; with `CCC(CC)ON(C[C@@H](O)[C@H](Cc1ccccc1)NC(=O)OC(C)(C)C)S(=O)(=O)c1ccc(OC)cc1`, 3200 pM; with `COc1ccc(S(=O)(=O)N(C[C@@H](O)[C@H](Cc2ccccc2)NC(=O)O[C@@H]2COC3OCCC32)OC2CCCC2)cc1` (some centres not stated), below 5 pM.
In the case of `COC(=O)N[C@H](C(=O)N[C@@H](Cc1ccccc1)[C@H](O)CN(OC1CCCC1)S(=O)(=O)c1ccc(OC)cc1)C(C)(C)C`, the Ki was 90 pM.
In turn, `Nc1cccc(S(=O)(=O)N(C[C@@H](O)[C@H](Cc2ccccc2)NC(=O)O[C@H]2CO[C@H]3OCC[C@H]32)OC2CCCC2)c1` showed a Ki below 5 pM.
On to `O=C(N[C@@H](Cc1ccccc1)[C@H](O)CN(OC1CCCC1)S(=O)(=O)c1ccc(O)cc1)O[C@H]1CO[C@H]2OCC[C@H]21`, for which the Ki was below 5 pM.
In the case of `COc1ccc(S(=O)(=O)N(C[C@@H](O)[C@H](Cc2ccccc2)NC(=O)OC(C)(C)C)OC2CCCC2)cc1` it was 1600 pM; in that of `O=C(N[C@@H](Cc1ccccc1)[C@H](O)CN(OC1CCCCC1)S(=O)(=O)c1ccc2c(c1)OCCO2)O[C@H]1CO[C@H]2OCC[C@H]21`, below 5 pM.
With `Nc1ccc(S(=O)(=O)N(C[C@@H](O)[C@H](Cc2ccccc2)NC(=O)O[C@H]2CO[C@H]3OCC[C@H]32)OC2CCCC2)cc1` the figure was below 5 pM; with `COc1ccc(S(=O)(=O)N(C[C@@H](O)[C@H](Cc2ccccc2)NC(=O)OC(C)(C)C)Oc2ccccc2)cc1`, 22000 pM.
In the case of `COc1ccc(S(=O)(=O)N(C[C@@H](O)[C@H](Cc2ccccc2)NC(=O)OC(C)(C)C)OC(C)C)cc1` [ENTRY A] it was 14000 pM; in that of `COc1ccc(S(=O)(=O)N(C[C@@H](O)[C@H](Cc2ccccc2)NC(=O)OC(C)(C)C)OC2CCCCC2)cc1`, 2800 pM; in that of `O=C(N[C@@H](Cc1ccccc1)[C@H](O)CN(OC1CCCC1)S(=O)(=O)c1ccc2c(c1)OCCO2)O[C@H]1CO[C@H]2OCC[C@H]21`, below 5 pM.
As to `O=C(N[C@@H](Cc1ccccc1)[C@H](O)CN(OC1CCCCC1)S(=O)(=O)c1ccc2c(c1)OCO2)O[C@H]1CO[C@H]2OCC[C@H]21`, the Ki was below 5 pM.
In the case of `COc1ccc(S(=O)(=O)N(C[C@@H](O)[C@H](Cc2ccccc2)NC(=O)OC(C)(C)C)OCC(C)C)cc1` it was 4000 pM; in that of `Nc1cccc(S(=O)(=O)N(C[C@@H](O)[C@H](Cc2ccccc2)NC(=O)O[C@H]2CO[C@H]3OCC[C@H]32)OC2CCCCC2)c1`, 5 pM.
With `O=C(N[C@@H](Cc1ccccc1)[C@H](O)CN(OC1CCCCC1)S(=O)(=O)c1ccc(O)cc1)O[C@H]1CO[C@H]2OCC[C@H]21` the figure was below 5 pM.
`COc1ccc(S(=O)(=O)N(C[C@@H](O)[C@H](Cc2ccccc2)NC(=O)O[C@H]2CO[C@H]3OCC[C@H]32)OC2CCCC2)cc1` showed an inhibitory constant (Ki) below 5 pM.
In the case of `COc1ccc(S(=O)(=O)N(C[C@@H](O)[C@H](Cc2ccccc2)NC(=O)OC(C)(C)C)OCC2CCCCC2)cc1` it was 12000 pM; in that of `COc1ccc(S(=O)(=O)N(CC(O)C(Cc2ccccc2)NC(=O)[C@H](CC(N)=O)NC(=O)c2ccc3ccccc3n2)OC2CCCC2)cc1` (some centres not stated), below 5 pM; in that of `Nc1ccc(S(=O)(=O)N(C[C@@H](O)[C@H](Cc2ccccc2)NC(=O)O[C@H]2CO[C@H]3OCC[C@H]32)OC2CCCCC2)cc1`, 18 pM.
